Data as given in PMC9851200, “Multiparameter phenotypic screening for endogenous TFEB and TFE3 translocation identifies novel chemical series modulating lysosome function” (Autophagy, 2022).
Where two headings read alike, the source gives them in different places.

Columns and labels:
Assay in all cases: biochemical
Assay type in all cases: binding
[1] = biological target: cellular kinases of SH-SY5Y cells (Homo sapiens, UniProt P50613); conditions: 2µM; SH-SY5Y cells; Labeling Site Lys2; DLKPNNLLLDENGVLK; read-out: KiNativ in-cell binding, % Inhibition, CDK7
Chain of cellular kinases of SH-SY5Y cells (Homo sapiens, UniProt P50613) (P50613 whole entry): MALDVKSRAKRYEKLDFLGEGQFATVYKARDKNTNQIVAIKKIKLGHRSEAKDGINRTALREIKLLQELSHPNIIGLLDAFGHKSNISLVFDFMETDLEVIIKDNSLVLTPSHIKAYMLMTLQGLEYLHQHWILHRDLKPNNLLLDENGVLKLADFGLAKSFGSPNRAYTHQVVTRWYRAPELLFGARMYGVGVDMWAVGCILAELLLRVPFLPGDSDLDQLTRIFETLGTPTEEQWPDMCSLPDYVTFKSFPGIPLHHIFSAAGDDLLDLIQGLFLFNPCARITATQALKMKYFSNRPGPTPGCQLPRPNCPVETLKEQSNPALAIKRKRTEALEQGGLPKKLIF
Excerpt: (§1) As KINOMEscan is an in vitro assay, and as different cell types have variable kinase expression profiles we sought to determine the kinase binding profile in our SH-SY5Y TFEB-relocalization cell model. […] Bound kinases were pulled down and analyzed by mass spectrometry to determine the in situ kinase binding profile for each compound.

[2] = biological target: T1, cellular kinases of SH-SY5Y cells (Homo sapiens, UniProt Q12851); conditions: 2µM; SH-SY5Y cells; Labeling Site Lys2; DIKGANLLLTLQGDVK; read-out: KiNativ in-cell binding, % Inhibition, GCK
T1 construct: endogenous in cells; host or cells: SH-SY5Y
T1 sequence (Q12851 whole entry): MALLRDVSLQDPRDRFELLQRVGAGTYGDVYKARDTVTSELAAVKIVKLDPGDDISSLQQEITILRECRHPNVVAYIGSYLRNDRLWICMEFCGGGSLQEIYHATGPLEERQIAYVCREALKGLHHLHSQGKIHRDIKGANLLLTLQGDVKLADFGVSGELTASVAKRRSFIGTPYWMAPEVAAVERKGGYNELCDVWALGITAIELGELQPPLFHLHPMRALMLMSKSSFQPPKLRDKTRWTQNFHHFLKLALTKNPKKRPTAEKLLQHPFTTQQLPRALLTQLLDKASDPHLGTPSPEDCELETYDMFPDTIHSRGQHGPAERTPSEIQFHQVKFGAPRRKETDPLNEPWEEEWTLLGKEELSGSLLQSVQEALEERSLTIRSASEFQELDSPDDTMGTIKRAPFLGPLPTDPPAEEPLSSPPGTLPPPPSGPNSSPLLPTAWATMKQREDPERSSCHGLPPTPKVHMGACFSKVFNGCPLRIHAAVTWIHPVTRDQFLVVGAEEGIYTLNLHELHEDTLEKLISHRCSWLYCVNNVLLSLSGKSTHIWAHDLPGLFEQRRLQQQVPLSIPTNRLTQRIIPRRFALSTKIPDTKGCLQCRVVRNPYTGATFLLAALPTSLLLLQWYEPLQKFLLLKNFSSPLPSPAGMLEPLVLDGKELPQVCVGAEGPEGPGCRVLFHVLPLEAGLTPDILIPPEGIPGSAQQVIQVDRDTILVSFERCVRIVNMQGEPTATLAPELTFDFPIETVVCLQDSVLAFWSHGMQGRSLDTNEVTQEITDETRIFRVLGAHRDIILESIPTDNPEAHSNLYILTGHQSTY
Excerpt: as §1

[3] = biological target: T2, cellular kinases of SH-SY5Y cells (Homo sapiens, UniProt Q96PY6); conditions: 2µM; SH-SY5Y cells; Labeling Site Lys2; DIKSQNIFLTK; read-out: KiNativ in-cell binding, % Inhibition, NEK1
T2 construct: endogenous in cells; host or cells: SH-SY5Y
T2 sequence (Q96PY6 whole entry): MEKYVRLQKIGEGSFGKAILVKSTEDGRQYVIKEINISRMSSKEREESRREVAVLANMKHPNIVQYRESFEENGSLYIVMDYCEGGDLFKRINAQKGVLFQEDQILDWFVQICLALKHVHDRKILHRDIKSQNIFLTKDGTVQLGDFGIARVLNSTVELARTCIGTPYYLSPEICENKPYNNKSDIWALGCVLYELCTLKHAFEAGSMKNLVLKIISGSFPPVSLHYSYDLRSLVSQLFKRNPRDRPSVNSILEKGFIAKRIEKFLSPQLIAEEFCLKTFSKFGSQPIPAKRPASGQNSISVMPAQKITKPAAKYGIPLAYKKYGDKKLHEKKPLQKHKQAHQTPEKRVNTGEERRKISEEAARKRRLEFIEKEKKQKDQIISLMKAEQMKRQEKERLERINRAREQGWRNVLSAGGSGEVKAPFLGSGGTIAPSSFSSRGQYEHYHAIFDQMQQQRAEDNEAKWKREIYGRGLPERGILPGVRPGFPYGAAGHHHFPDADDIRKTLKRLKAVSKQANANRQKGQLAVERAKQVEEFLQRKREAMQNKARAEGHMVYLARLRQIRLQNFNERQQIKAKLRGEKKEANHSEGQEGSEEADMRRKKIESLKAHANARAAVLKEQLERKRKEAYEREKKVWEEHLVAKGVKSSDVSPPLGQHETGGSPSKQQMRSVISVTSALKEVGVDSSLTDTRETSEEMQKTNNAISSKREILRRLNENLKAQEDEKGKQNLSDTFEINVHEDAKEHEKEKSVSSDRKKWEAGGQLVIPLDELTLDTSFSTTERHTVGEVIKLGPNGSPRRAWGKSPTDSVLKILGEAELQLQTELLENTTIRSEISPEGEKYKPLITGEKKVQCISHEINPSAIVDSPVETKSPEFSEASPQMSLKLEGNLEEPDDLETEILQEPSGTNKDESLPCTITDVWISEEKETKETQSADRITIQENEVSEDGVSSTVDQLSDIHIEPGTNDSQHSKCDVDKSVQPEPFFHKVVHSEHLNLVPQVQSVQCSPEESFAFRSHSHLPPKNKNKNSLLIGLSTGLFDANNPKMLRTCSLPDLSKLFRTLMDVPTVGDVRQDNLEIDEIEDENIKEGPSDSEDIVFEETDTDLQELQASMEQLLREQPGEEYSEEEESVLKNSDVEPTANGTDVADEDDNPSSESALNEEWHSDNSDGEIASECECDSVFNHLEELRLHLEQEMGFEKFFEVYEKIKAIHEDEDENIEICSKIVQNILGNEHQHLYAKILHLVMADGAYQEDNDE
Excerpt: as §1

[4] = biological target: cellular kinases of SH-SY5Y cells (Homo sapiens, UniProt P48736); conditions: 2µM; SH-SY5Y cells; Labeling Site ATP; KKPLWLEFK; read-out: KiNativ in-cell binding, % Inhibition, PIK3CG
Excerpt: as §1

[5] = biological target: cellular kinases of SH-SY5Y cells (Homo sapiens, UniProt Q5S007); conditions: 2µM; SH-SY5Y cells; Labeling Site Lys2; DLKPHNVLLFTLYPNAAIIAK; read-out: KiNativ in-cell binding, % Inhibition, LRRK2
Excerpt: as §1

[6] = biological target: cellular kinases of SH-SY5Y cells (Homo sapiens, UniProt P29317); conditions: 2µM; SH-SY5Y cells; Labeling Site Activation Loop; VLEDDPEATYTTSGGKIPIR; read-out: KiNativ in-cell binding, % Inhibition, EphA2
Excerpt: as §1

[7] = biological target: cellular kinases of SH-SY5Y cells (Homo sapiens, UniProt O14965); conditions: 2µM, SH-SY5Y cells, read-out: KiNativ in-cell binding, % Inhibition, AURKA/AurA
Chain of cellular kinases of SH-SY5Y cells (Homo sapiens, UniProt O14965) (O14965 whole entry): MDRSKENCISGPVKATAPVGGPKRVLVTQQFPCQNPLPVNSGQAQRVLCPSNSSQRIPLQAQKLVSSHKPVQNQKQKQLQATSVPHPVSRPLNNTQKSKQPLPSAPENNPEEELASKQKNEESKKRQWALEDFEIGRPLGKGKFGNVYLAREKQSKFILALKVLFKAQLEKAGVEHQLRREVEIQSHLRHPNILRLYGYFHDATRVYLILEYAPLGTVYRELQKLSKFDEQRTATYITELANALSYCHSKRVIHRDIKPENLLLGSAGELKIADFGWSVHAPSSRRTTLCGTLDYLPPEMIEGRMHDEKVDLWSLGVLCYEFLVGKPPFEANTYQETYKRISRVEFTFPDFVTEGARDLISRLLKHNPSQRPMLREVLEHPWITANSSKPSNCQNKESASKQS
Excerpt: as §1

[8] = biological target: cellular kinases of SH-SY5Y cells (Homo sapiens, UniProt P07332); conditions: 2µM; SH-SY5Y cells; Labeling Site Lys1; LRADNTLVAVKSCR; read-out: KiNativ in-cell binding, % Inhibition, FES
Chain of cellular kinases of SH-SY5Y cells (Homo sapiens, UniProt P07332) (P07332 whole entry): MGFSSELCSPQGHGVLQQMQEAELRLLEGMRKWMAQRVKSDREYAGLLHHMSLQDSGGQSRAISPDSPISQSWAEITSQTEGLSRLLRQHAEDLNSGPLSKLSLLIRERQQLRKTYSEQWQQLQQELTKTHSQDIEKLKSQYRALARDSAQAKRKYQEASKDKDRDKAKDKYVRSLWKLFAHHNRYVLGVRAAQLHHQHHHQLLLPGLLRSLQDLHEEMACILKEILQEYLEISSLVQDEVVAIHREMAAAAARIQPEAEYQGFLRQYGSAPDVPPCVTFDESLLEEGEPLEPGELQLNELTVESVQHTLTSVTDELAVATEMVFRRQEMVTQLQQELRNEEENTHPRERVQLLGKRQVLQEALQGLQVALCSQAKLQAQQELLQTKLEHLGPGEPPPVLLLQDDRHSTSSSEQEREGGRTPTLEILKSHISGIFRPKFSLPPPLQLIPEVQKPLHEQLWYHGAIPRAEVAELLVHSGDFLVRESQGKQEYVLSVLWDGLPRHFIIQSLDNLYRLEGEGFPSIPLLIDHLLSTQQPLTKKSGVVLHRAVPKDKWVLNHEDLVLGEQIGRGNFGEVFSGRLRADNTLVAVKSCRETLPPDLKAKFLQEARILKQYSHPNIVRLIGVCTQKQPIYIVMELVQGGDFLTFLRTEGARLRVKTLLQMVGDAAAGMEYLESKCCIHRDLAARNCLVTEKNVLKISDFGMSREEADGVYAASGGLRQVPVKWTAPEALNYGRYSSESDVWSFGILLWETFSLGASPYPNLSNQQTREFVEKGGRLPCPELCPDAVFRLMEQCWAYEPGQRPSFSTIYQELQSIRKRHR
Excerpt: as §1

[9] = biological target: T3, cellular kinases of SH-SY5Y cells (Homo sapiens, UniProt O60307); conditions: 2µM; SH-SY5Y cells; Labeling Site Lys2; DLKPDNLLITSLGHIK; read-out: KiNativ in-cell binding, % Inhibition, MAST3
T3 construct: endogenous in cells; host or cells: SH-SY5Y
Excerpt: as §1

[10] = biological target: cellular kinases of SH-SY5Y cells (Homo sapiens, UniProt Q13043); conditions: 2µM; SH-SY5Y cells; Labeling Site Lys1; ETGQIVAIKQVPVESDLQEIIK; read-out: KiNativ in-cell binding, % Inhibition, STK4/MST1
Excerpt: as §1

[11] = biological target: T4, cellular kinases of SH-SY5Y cells (Homo sapiens, UniProt Q58A45); conditions: 2µM, SH-SY5Y cells, labeling site ATP
T4 construct: endogenous in cells; host or cells: SH-SY5Y
T4 sequence (Q58A45 whole entry): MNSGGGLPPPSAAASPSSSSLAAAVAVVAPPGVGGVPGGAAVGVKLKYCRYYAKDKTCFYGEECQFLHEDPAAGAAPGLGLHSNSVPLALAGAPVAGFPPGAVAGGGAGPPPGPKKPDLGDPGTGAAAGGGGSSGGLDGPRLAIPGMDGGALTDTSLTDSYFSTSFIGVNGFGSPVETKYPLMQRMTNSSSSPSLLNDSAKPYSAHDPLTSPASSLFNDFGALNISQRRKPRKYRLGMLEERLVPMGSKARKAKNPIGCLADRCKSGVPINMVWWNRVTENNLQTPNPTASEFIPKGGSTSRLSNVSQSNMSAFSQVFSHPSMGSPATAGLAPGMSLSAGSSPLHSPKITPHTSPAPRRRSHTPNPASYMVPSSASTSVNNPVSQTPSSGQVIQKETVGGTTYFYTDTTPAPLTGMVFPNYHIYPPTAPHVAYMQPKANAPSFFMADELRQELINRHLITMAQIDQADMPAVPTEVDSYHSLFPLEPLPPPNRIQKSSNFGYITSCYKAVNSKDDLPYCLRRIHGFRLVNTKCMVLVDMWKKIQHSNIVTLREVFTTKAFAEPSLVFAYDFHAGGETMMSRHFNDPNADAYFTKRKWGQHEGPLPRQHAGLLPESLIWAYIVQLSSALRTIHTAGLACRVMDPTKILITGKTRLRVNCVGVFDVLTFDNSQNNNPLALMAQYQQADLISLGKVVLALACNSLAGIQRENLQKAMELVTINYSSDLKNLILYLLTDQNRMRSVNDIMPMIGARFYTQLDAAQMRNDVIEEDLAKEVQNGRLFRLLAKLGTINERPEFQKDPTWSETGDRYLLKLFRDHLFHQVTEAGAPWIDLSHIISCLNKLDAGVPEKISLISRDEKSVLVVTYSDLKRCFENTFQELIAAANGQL
Excerpt: as §1

[12] = biological target: cellular kinases of SH-SY5Y cells (Homo sapiens, UniProt P29323); conditions: 2µM; SH-SY5Y cells; Labeling Site Activation Loop; FLEDDTSDPTYTSALGGKIPIR; read-out: KiNativ in-cell binding, % Inhibition, EphB2
Excerpt: as §1

[13] = biological target: T5, cellular kinases of SH-SY5Y cells (Homo sapiens, UniProt P52564); conditions: 2µM, SH-SY5Y cells; for inhibition at 2 µM: read-out: KiNativ in-cell binding, % Inhibition, MAP2K6
T5 sequence (P52564 1-334): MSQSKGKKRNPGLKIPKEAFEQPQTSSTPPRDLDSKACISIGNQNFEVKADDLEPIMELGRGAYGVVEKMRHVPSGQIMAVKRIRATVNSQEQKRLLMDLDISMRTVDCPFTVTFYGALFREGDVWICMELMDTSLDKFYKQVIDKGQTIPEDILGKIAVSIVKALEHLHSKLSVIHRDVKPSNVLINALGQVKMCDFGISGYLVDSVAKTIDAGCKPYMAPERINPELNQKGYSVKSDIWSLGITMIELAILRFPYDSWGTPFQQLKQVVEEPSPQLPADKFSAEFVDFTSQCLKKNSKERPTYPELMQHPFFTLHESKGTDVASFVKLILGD
Excerpt: as §1

[14] = biological target: T6, cellular kinases of SH-SY5Y cells (Homo sapiens, UniProt O14936); conditions: 2µM; SH-SY5Y cells; Labeling Site Lys1; ETGQQFAVKIVDVAK; read-out: KiNativ in-cell binding, % Inhibition, CASK
T6 construct: endogenous in cells; host or cells: SH-SY5Y
Excerpt: as §1

[15] = biological target: cellular kinases of SH-SY5Y cells (Homo sapiens, UniProt P49841); conditions: read-out: KiNativ in-cell binding, % Inhibition, GSK3B
Excerpt: as §1

[16] = biological target: cellular kinases of SH-SY5Y cells (Homo sapiens, UniProt P27361); conditions: 2µM; SH-SY5Y cells; Labeling Site Lys2; DLKPSNLLINTTCDLK; read-out: KiNativ in-cell binding, % Inhibition, MAPK3/Erk1
Chain of cellular kinases of SH-SY5Y cells (Homo sapiens, UniProt P27361) (P27361 whole entry): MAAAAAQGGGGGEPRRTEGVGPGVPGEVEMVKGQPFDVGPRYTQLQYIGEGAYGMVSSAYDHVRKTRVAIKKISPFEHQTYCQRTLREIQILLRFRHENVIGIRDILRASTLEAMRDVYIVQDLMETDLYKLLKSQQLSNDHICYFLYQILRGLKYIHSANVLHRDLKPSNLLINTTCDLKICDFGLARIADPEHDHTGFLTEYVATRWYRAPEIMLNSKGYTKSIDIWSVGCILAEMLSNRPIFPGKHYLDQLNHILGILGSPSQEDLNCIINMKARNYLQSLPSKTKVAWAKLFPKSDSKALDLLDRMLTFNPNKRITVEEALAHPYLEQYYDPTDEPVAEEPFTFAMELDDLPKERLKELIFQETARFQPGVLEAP
Excerpt: as §1

[17] = biological target: cellular kinases of SH-SY5Y cells (Homo sapiens, UniProt Q13163); conditions: 2µM; SH-SY5Y cells; Labeling Site Lys2; DVKPSNMLVNTR; read-out: KiNativ in-cell binding, % Inhibition, MAP2K5
Excerpt: as §1

Cc1cccc(-c2nc(Nc3ccc4ncsc4c3)c3ccccc3n2)n1 [NK140]
inhibition at 2 µM [1]: 56.5%
inhibition at 2 µM [2]: 11.6%
inhibition at 2 µM [3]: -13%
inhibition at 2 µM [4]: 27.6%
inhibition at 2 µM [5]: 6%
inhibition at 2 µM [6]: 1.2%
inhibition at 2 µM ([7]; Labeling Site Lys1, FILALKVLFK): 8.2%
inhibition at 2 µM ([7]; Labeling Site Lys2, DIKPENLLLGSAGELK): 18%
inhibition at 2 µM [8]: 17.1%
inhibition at 2 µM [9]: 1.2%
inhibition at 2 µM [10]: 39%
KiNativ in-cell binding, PAN3 ([11]; peptide IQKSSNFGYITSCYK): -119.6
KiNativ in-cell binding, PAN3 ([11]; peptide VMDPTKILITGK): -99.0
inhibition at 2 µM [12]: -8.7%
inhibition at 2 µM ([13]; Labeling Site Activation Loop, MCDFGISGYLVDSVAKTIDAGCKPYMAPER): -15.9%
inhibition at 2 µM ([13]; Labeling Site Lys1, HVPSGQIMAVKR): 15.4%
KiNativ in-cell binding, MAP2K6 ([13]; labeling site Lys2, peptide DVKPSNVLINALGQVK): 17.8
inhibition at 2 µM [14]: 43%
inhibition at 2 µM [15]: 15.8%
inhibition at 2 µM [16]: 32.4%
inhibition at 2 µM [17]: -14.7%
